Reference: patent publication US20250177378A1, “TREATMENT OF DEPRESSION” (priority 2022, published 2025)
Values joined by “and” are separate entries in the source; they are usually repeats but may differ in a detail not shown here. Equal values may be shown once.

What was measured:
patients with depression = details: 150 mg/day or 300 mg/day, week 8; cited from earlier work
individuals with MDD = details: switch strategy; cited from earlier work
[1] = system: patients with major depressive disorder; assay: Phase 2 randomized double-blind trial, dextromethorphan-bupropion (45 mg/105 mg tablet) vs bupropion (105 mg tablet), twice daily, 6 weeks (NCT03595579)
Protocol: This randomized, double-blind, multicenter, parallel-group trial evaluated dextromethorphan-bupropion versus the active comparator sustained-release bupropion in patients 18-65 years old with a diagnosis of major depressive disorder of moderate or greater severity. Patients were randomly assigned to receive either dextromethorphan-bupropion (45 mg/105 mg tablet) or bupropion (105 mg tablet), once daily for the first 3 days and twice daily thereafter, for a total of 6 weeks.
This was a 6-week randomized, double-blind, active-controlled phase 2 trial conducted at four sites in the United States from May 2018 to December 2018. The trial used bupropion, an approved antidepressant, as the control because it is a component of dextromethorphan-bupropion.
The clinical review utilized only documentation collected by the sites at screening and baseline, including a complete medical history and clinician- and patient-reported outcome measures (described below, under Efficacy Assessments). […] In order to reduce investigator expectation bias and therefore placebo response, sites were blinded to the primary efficacy variable and the presence of an independent assessor. Sites were provided a blinded protocol that presented the trial as a safety study with exploratory efficacy assessments. Detailed discussion of the efficacy analysis was limited to the statistical analysis plan, which was not provided to the sites.
The study evaluated patients 18-65 years of age with a confirmed diagnosis of major depressive disorder and a current major depressive episode of moderate or greater severity. The diagnosis was established using the DSM-5 criteria for major depressive disorder without psychotic features, based on the Structured Clinical Interview for DSM-5, Clinical Trials Version, and the site investigator's rating of a score ≥25 on the Montgomery-Åsberg Depression Rating Scale (MADRS) and a score ≥4 on the Clinical Global Impressions severity scale (CGI-S). Confirmation of the diagnosis of major depressive disorder and a current major depressive episode of moderate or greater severity was performed by a blinded independent assessor based on a clinical review prior to database lock and study unblinding.
The screening period was up to 4 weeks to allow for any needed taper and washout of prior medications.
Participants were randomized in a 1:1 ratio to receive oral treatment with either dextromethorphan-bupropion or sustained-release bupropion. In order to blind site investigators to the independent confirmation of diagnosis, all patients deemed eligible by the site investigators were randomized to receive study medication and were included in the safety population. As prespecified, patients whose diagnosis or severity was not confirmed by the independent assessor were excluded from the efficacy population.
Dextromethorphan-bupropion tablets and bupropion tablets were identical in appearance. The randomization schedule was computer generated using a permuted block algorithm that randomly allocated study drug to randomization numbers.
The double-blind treatment period was 6 weeks. Patients received their assigned study medication, dextromethorphan-bupropion (45 mg/105 mg tablet) or bupropion (105 mg tablet), once daily for the first 3 days and twice daily thereafter. The bupropion dosage in the control arm (210 mg daily) was selected to match the dosage incorporated in dextromethorphan-bupropion, enabling an appropriate comparison. During the treatment period, patients tracked their mood daily by completing a daily visual analogue mood scale. Study visits occurred 1, 2, 3, 4, and 6 weeks after the baseline visit. A safety follow-up visit occurred at week 7, 1 week after the last dose of study medication. There were no formal discontinuation criteria; patients were free to withdraw consent for any reason, and investigators were free to remove a patient from the study for any safety-related reason.

[2] = Pharmacokinetics of dextromethorphan, bupropion and metabolites after administration of the subject combination

CC(NC(C)(C)C)C(=O)c1cccc(Cl)c1 (racemic) [bupropion]
Reduction from baseline in Hamilton Depression Rating Scale (HAM-D) score (patients with depression): approximately 10 points
Remission rate, second line treatment following non-remission with an SSRI (individuals with MDD): about 25%
Adverse event leading to discontinuation of study drug, patients ([1]; human, in vivo, 6 weeks): 12.5%
Anxiety, patients ([1]; human, in vivo, 6 weeks): 2.1%
Any adverse event, patients ([1]; human, in vivo, 6 weeks): 64.6%
Decreased appetite, patients ([1]; human, in vivo, 6 weeks): 8.3%
Dizziness, patients ([1]; human, in vivo, 6 weeks): 4.2%
Dry mouth, patients ([1]; human, in vivo, 6 weeks): 8.3%
Nausea, patients ([1]; human, in vivo, 6 weeks): 12.5%
Serious adverse event, patients ([1]; human, in vivo, 6 weeks): 0.0%
Severe adverse event, patients ([1]; human, in vivo, 6 weeks): 2.1%
CGI-S score, change from baseline, LS mean ([1]; overall, weeks 1-6): −1.0
MADRS-6 score, change from baseline, LS mean ([1]; overall, weeks 1-6): −6.6 points
QIDS-SR, LS mean change from baseline ([1]; overall, weeks 1-6): −4.8
Patients with positive response on item 1 of the C-SSRS (wish to be dead) ([1]; week 1): five
CGI-S score, change from baseline, LS mean ([1]; week 2): −0.9
Clinical response (≥50% decrease in MADRS score from baseline), patients ([1]; week 2): 27.0%
MADRS total score, change from baseline, LS mean ([1]; week 2): −7.8 points
MADRS-6 score, change from baseline, LS mean ([1]; week 2): −6.0
Remission (MADRS score ≤10), patients ([1]; week 2): 2.7% and 3%
CGI-S score, change from baseline, LS mean ([1]; week 6): −1.5
Clinical response (≥50% decrease in MADRS score from baseline), patients ([1]; week 6): 40.5%
MADRS total score, change from baseline, LS mean ([1]; week 6): −12.1 points
MADRS-6 score, change from baseline, LS mean ([1]; week 6): −8.7
Patients with positive response on item 1 of the C-SSRS (wish to be dead) ([1]; week 6): one
Remission (MADRS score ≤10), patients ([1]; week 6): 16.2%
Remission on the QIDS-SR (score ≤5), patients ([1]; week 6): 21.6%
Reduction from baseline in MADRS total score ([1]; week 6, bupropion arm 210 mg/day): 12 points

COc1ccc2c(c1)[C@]13CCCC[C@@H]1[C@H](C2)N(C)CC3 [dextromethorphan]
Increase of mean elimination half-life vs dextromethorphan given without bupropion ([2]; 8 consecutive days of the subject combination, extensive metabolizers): approximately 3 fold
AUC0-12 decrease when administered with food ([2]; subject combination with food): 14%
Cmax change when administered with food ([2]; subject combination with food): unchanged

CN[C@H]1CC[C@@H](c2ccc(Cl)c(Cl)c2)c2ccccc21 [sertraline]
Remission rate, second line treatment following non-remission with an SSRI (individuals with MDD): about 25%

COc1ccc(C(CN(C)C)C2(O)CCCCC2)cc1 (stereo not drawn) [venlafaxine]
Remission rate, second line treatment following non-remission with an SSRI (individuals with MDD): about 25%
